Experimental data reported in the supplement of paper PMC10307832.

Experiments:
Assay in all cases: relative viability (nuclei count vs DMSO), 5 days (fraction); higher = more cells survive
Selumetinib + Pemetrexed = compound: Cn1cnc2c(F)c(Nc3ccc(Br)cc3Cl)c(C(=O)NOCCO)cc21 [Selumetinib] + Nc1nc2[nH]cc(CCc3ccc(C(=O)N[C@@H](CCC(=O)O)C(=O)O)cc3)c2c(=O)[nH]1 [Pemetrexed] (partner 0.2 µM)
Method in brief: (§1)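 Relative viability equals treated-well nuclei counts divided by vehicle-well nuclei counts. Counts came from 4× images of lung cancer cell lines grown in 1536-well plates for 5 days after pin-tool dosing on the day after seeding. Dosing used one drug alone or a fixed anchor-drug dose plus five library-drug doses (not always all listed) in √10 steps, and values are medians of duplicate plates.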

Selumetinib + Tozasertib = compound: Cn1cnc2c(F)c(Nc3ccc(Br)cc3Cl)c(C(=O)NOCCO)cc21 [Selumetinib] + Cc1cc(Nc2cc(N3CCN(C)CC3)nc(Sc3ccc(NC(=O)C4CC4)cc3)n2)n[nH]1 [Tozasertib] (partner 0.1 µM)
Method in brief: as §1

Venetoclax + Dasatinib = compound: CC1(C)CCC(CN2CCN(c3ccc(C(=O)NS(=O)(=O)c4ccc(NCC5CCOCC5)c([N+](=O)[O-])c4)c(Oc4cnc5[nH]ccc5c4)c3)CC2)=C(c2ccc(Cl)cc2)C1 [Venetoclax] + Cc1nc(Nc2ncc(C(=O)Nc3c(C)cccc3Cl)s2)cc(N2CCN(CCO)CC2)n1 [Dasatinib] (partner 0.075 µM)
Method in brief: as §1

Selumetinib + Bortezomib = compound: Cn1cnc2c(F)c(Nc3ccc(Br)cc3Cl)c(C(=O)NOCCO)cc21 [Selumetinib] + CC(C)C[C@H](NC(=O)[C@H](Cc1ccccc1)NC(=O)c1cnccn1)B(O)O [Bortezomib] (partner 0.002 µM)
Method in brief: as §1

Cell Line	relative viability (Selumetinib + Pemetrexed; first compound 0.02 µM)	relative viability (Selumetinib + Pemetrexed; first compound 0.06325 µM)	relative viability (Selumetinib + Pemetrexed; first compound 0.2 µM)	relative viability (Selumetinib + Pemetrexed; first compound 0.6325 µM)	relative viability (Selumetinib + Tozasertib; first compound 0.02 µM)	relative viability (Selumetinib + Tozasertib; first compound 0.06325 µM)	relative viability (Selumetinib + Tozasertib; first compound 0.2 µM)	relative viability (Selumetinib + Tozasertib; first compound 0.6325 µM)	relative viability (Venetoclax + Dasatinib; first compound 0.01 µM)	relative viability (Venetoclax + Dasatinib; first compound 0.03162 µM)	relative viability (Venetoclax + Dasatinib; first compound 0.1 µM)	relative viability (Venetoclax + Dasatinib; first compound 0.3162 µM)	relative viability (Venetoclax + Dasatinib; first compound 1 µM)	relative viability (Selumetinib + Bortezomib; first compound 0.02 µM)	relative viability (Selumetinib + Bortezomib; first compound 0.06325 µM)	relative viability (Selumetinib + Bortezomib; first compound 0.2 µM)	relative viability (Selumetinib + Bortezomib; first compound 0.6325 µM)
NCI-H23	0.811	0.43	0.465	0.529	0.36	0.301	0.224	0.31	0.664	0.781	0.636	0.706	0.628	1.34	0.967	0.721	0.965
NCI-H322M	0.546	0.524	0.564	0.562	0.391	0.418	0.369	0.366	0.291	0.239	0.237	0.246	0.24	1.05	1.22	1.01	0.98
NCI-H441	0.283	0.248	0.275	0.308	0.587	0.656	0.636	0.583	0.685	0.667	0.482	0.546	0.596	0.658	0.345	0.544	0.506
NCI-H460	0.0568	0.082	0.0617	0.0698	0.379	0.283	0.246	0.152	0.597	0.532	0.401	0.527	0.478	0.962	0.684	0.852	0.458
NCI-H520	0.654	0.754	0.752	0.731	0.477	0.435	0.461	0.52	0.218	0.193	0.158	0.178	0.195	0.635	0.47	0.498	0.575
NCI-H596	0.485	0.576	0.426	0.494	0.883	0.899	0.668	0.648	0.707	0.549	0.587	0.572	0.615	0.92	0.93	0.835	0.621
NCI-H647	0.177	0.178	0.19	0.173	0.409	0.168	0.319	0.358	0.16	0.218	0.162	0.238	0.228	0.96	0.946	0.901	0.73
NCI-H650	1.05	1.25	1.19	1.16	0.85	0.692	0.864	0.533	0.488	0.539	0.453	0.484	0.432	1.01	0.995	1.25	1.17
NCI-H661	0.955	0.875	0.92	0.872	0.381	0.366	0.386	0.374	0.809	1.04	0.871	0.995	0.888	0.751	0.847	0.722	0.575
NCI-H838	0.234	0.214	0.233	0.242	0.261	0.226	0.229	0.245	0.367	0.288	0.303	0.312	0.279	0.695	0.59	0.679	0.513
NCI-H1355	1.01	0.881	0.898	0.788	0.536	0.567	0.445	0.414	0.697	0.731	0.623	0.723	0.602	1.18	1.17	0.884	0.822
NCI-H1437	0.302	0.253	0.246	0.259	0.319	0.359	0.274	0.2	0.508	0.494	0.274	0.44	0.478	0.486	0.378	0.316	0.276
NCI-H1650	0.304	0.338	0.331	0.295	0.332	0.394	0.312	0.308	0.362	0.352	0.29	0.324	0.305	0.199	0.172	0.215	0.222
NCI-H1651	0.623	0.57	0.596	0.626	0.644	0.643	0.591	0.537	0.474	0.43	0.383	0.409	0.43	1.08	0.861	0.873	0.818
NCI-H1666	0.811	0.775	0.765	0.755	0.589	0.489	0.528	0.554	0.816	0.821	0.838	0.708	0.766	0.595	0.586	0.63	0.495
NCI-H1734	0.387	0.373	0.404	0.418	0.244	0.251	0.234	0.227	0.471	0.415	0.417	0.446	0.451	1.04	0.819	1.02	0.835
NCI-H1755	0.467	0.409	0.428	0.509	0.597	0.552	0.563	0.558	0.398	0.404	0.43	0.402	0.378	0.952	0.859	0.834	0.914

Cell Line	relative viability (Selumetinib + Pemetrexed; first compound 0.02 µM)	relative viability (Selumetinib + Pemetrexed; first compound 0.06325 µM)	relative viability (Selumetinib + Pemetrexed; first compound 0.2 µM)	relative viability (Selumetinib + Pemetrexed; first compound 0.6325 µM)	relative viability (Selumetinib + Tozasertib; first compound 0.02 µM)	relative viability (Selumetinib + Tozasertib; first compound 0.06325 µM)	relative viability (Selumetinib + Tozasertib; first compound 0.2 µM)	relative viability (Selumetinib + Tozasertib; first compound 0.6325 µM)	relative viability (Venetoclax + Dasatinib; first compound 0.01 µM)	relative viability (Venetoclax + Dasatinib; first compound 0.03162 µM)	relative viability (Venetoclax + Dasatinib; first compound 0.1 µM)	relative viability (Venetoclax + Dasatinib; first compound 0.3162 µM)	relative viability (Venetoclax + Dasatinib; first compound 1 µM)	relative viability (Selumetinib + Bortezomib; first compound 0.02 µM)	relative viability (Selumetinib + Bortezomib; first compound 0.06325 µM)	relative viability (Selumetinib + Bortezomib; first compound 0.2 µM)	relative viability (Selumetinib + Bortezomib; first compound 0.6325 µM)
NCI-H1915	0.519	0.449	0.533	0.373	0.428	0.568	0.319	0.303	0.303	0.301	0.311	0.297	0.32	1.07	0.877	0.747	0.617
NCI-H1975	0.288	0.309	0.302	0.283	0.753	0.703	0.684	0.591	0.355	0.4	0.372	0.318	0.322	0.324	0.282	0.262	0.221
NCI-H1993	0.614	0.571	0.553	0.651	0.492	0.557	0.575	0.601	0.641	0.546	0.493	0.541	0.537	0.861	0.897	0.873	0.806
NCI-H2009	1.03	0.945	0.792	0.45	0.606	0.502	0.499	0.384	0.37	0.315	0.283	0.302	0.266	0.788	0.591	0.538	0.362
NCI-H2023	0.247	0.137	0.239	0.195	0.362	0.317	0.267	0.253	0.697	0.53	0.653	0.512	0.46	0.899	0.785	0.895	0.896
NCI-H2085	0.77	0.789	0.677	0.627	0.737	0.592	0.552	0.593	0.273	0.238	0.282	0.243	0.22	1	0.947	0.926	0.916
NCI-H2087	0.677	0.649	0.591	0.361	0.194	0.211	0.166	0.147	0.848	0.839	0.997	0.936	0.76	0.626	0.542	0.456	0.351
NCI-H2126	0.627	0.612	0.684	0.568	0.784	0.741	0.728	0.638	0.568	0.572	0.612	0.607	0.546	1.09	1.01	0.984	0.996
NCI-H2228	0.375	0.394	0.333	0.33	0.247	0.255	0.211	0.204	0.555	0.546	0.496	0.488	0.447	0.923	0.989	0.75	0.584
NCI-H2347	0.425	0.402	0.399	0.392	0.505	0.489	0.35	0.228	0.328	0.318	0.322	0.309	0.268	0.755	0.817	0.6	0.45
NCI-H2405	0.999	0.813	0.75	0.736	0.734	0.673	0.692	0.478	0.179	0.199	0.186	0.197	0.197	0.971	0.928	0.858	0.744
NCI-H3122	0.181	0.171	0.156	0.169	0.397	0.351	0.305	0.268	0.811	0.757	0.885	0.786	0.817	0.896	0.811	0.779	0.78
PC-3 [JPC-3]	1.2	0.819	0.82	0.836	0.991	0.813	0.769	0.655	0.863	0.991	0.995	1.01	0.942	0.822	0.813	0.669	0.551
PC-14	0.123	0.114	0.107	0.127	0.529	0.486	0.532	0.434	0.337	0.272	0.284	0.259	0.253	0.889	0.815	0.926	0.766
RERF-LC-KJ	0.429	0.459	0.492	0.472	0.541	0.489	0.465	0.44	0.62	0.84	0.784	0.779	0.675	1.05	1.01	0.92	0.944
SK-LU-1	1	0.978	0.862	0.614	0.301	0.306	0.29	0.252	0.251	0.168	0.192	0.191	0.181	1.25	1.28	0.918	0.715
SW 1573	0.82	0.725	0.857	0.769	0.15	0.145	0.174	0.153	0.431	0.445	0.517	0.599	0.452	1.01	0.86	0.802	0.932
